# Experimental data published in publication PMC8876135, “The Catestatin-Derived Peptides Are New Actors to Fight the Development of Oral Candidosis” (International Journal of Molecular Sciences, 2022).
# Non-standard residues stand in square brackets, D forms with d. Residues, ends and D or L forms follow the SMILES beside them. *: point of attachment. Palmitoyl = CCCCCCCCCCCCCCCC(=O)*
# Columns and labels:
# [1] = system: Candida albicans “S” (ATCC 10231); type: cell-based; conditions: ATCC 10231, 24 h, pH 5.6
# Method: (§1) Strains of Candida albicans, Candida tropicalis and Candida glabrata, frequently found in cases of oral candidosis, were tested for L-bCtl and D-bCtl antimicrobial activity. The sensitive strain of C. albicans (ATCC 10231^TM) was provided by ATCC (Manassas, VA, USA). The resistant strain of C. albicans, the sensitive and resistant strains of C. tropicalis as well as the sensitive and resistant strains of C. glabrata were kindly provided by Dr Valérie Letscher-Bru (Laboratory of Parasitolology and Medical Mycology, Strasbourg, France).
# (§2) Each Candida strain was first plated on agar plates and cultured for 24 h at 37 °C. After incubation, one colony per isolate was transferred into 5 mL of Sabouraud medium pH 5.6 (Sigma-Aldrich, Le Pont-de-Claix, France) supplemented with tetracycline (10 μg/mL) and cefotaxime (10 μg/mL) and incubated aerobically under agitation at 37 °C for 24 h. The resulting cultures were resuspended at an absorbance of 0.001 (OD600nm = 0.001) in Sabouraud medium. The OD600nm was evaluated with a spectrophotometer (BIO-RAD Smatspec^TM plus, Schiltigheim, France). In preliminary experiments, we tested RPMI-1640 culture and Sabouraud media. Similar data were obtained but the experiments were more reproducible with Sabouraud than with RPMI1640. Therefore, Sabouraud medium was used in the present study.
# (§3) The yeasts (OD600nm = 0.001) were then plated on 96-well microplates and treated with different concentrations of the peptides of interest. After 24 h incubation at 37 °C under agitation, yeast growth was assessed by optical density (OD600nm) using a microplate spectrophotometer (Multiscan EX, Thermo Fisher Scientific, Waltham, MA, USA). All tests were performed in triplicate. The MIC (minimal inhibitory concentration), defined as the lowest concentration of drug able to inhibit 100% of the growth of a pathogen, was determined for the different peptides against all previously described Candida strains, using a modified Gompertz model.
# [2] = system: Candida albicans “R”; type: cell-based; conditions: 24 h, pH 5.6
# Method: as §1, §2, §3
SMILES,MIC C. albicans “S” [1] [µg/mL],MIC C. albicans “R” [2] [µg/mL]
CCCCCCCCCCCCCCCC(=O)N[C@@H](CCSC)C(=O)N[C@@H](CCCCN)C(=O)N[C@@H](CC(C)C)C(=O)N[C@@H](CO)C(=O)N[C@@H](Cc1ccccc1)C(=O)N[C@@H](CCCNC(=N)N)C(=O)O [Peptide P19] (Palmitoyl-MKLSFR-OH; C-terminus assumed),>100,>100
CC(C)C[C@H](NC(=O)[C@@H](N)CCCNC(=N)N)C(=O)N[C@@H](CO)C(=O)N[C@@H](Cc1ccccc1)C(=O)N[C@@H](CCCNC(=N)N)C(=O)N[C@@H](C)C(=O)N[C@@H](Cc1c[nH]c2ccccc12)C(=O)O [Peptide P5] (H-RLSFRAW-OH),>100,>100
CCCCCCCCCCCCCCCC(=O)N[C@@H](CC(C)C)C(=O)N[C@@H](CO)C(=O)N[C@@H](Cc1ccccc1)C(=O)N[C@@H](CCCNC(=N)N)C(=O)O [Peptide P11] (Palmitoyl-LSFR-OH; C-terminus assumed),>100,>100
CC(=O)N[C@@H](CC(C)C)C(=O)N[C@@H](CO)C(=O)N[C@@H](Cc1ccccc1)C(=O)N[C@@H](CCCNC(=N)N)C(=O)O [Peptide P10] (Ac-LSFR-OH),>100,>100
CC(=O)N[C@@H](CC(C)C)C(=O)N[C@@H](CO)C(=O)N[C@@H](Cc1ccccc1)C(=O)N[C@@H](CCCNC(=N)N)C(=O)N[C@@H](C)C(=O)N[C@@H](CCCNC(=N)N)C(=O)O [Peptide P7] (Ac-LSFRAR-OH),>100,>100
CSCC[C@H](NC(=O)[C@H](CO)NC(=O)[C@H](CO)NC(C)=O)C(=O)N[C@@H](CCCCN)C(=O)N[C@@H](CC(C)C)C(=O)N[C@@H](CO)C(=O)N[C@@H](Cc1ccccc1)C(=O)N[C@@H](CCCNC(=N)N)C(=O)N[C@@H](C)C(=O)N[C@@H](CCCNC(=N)N)C(=O)NCC(=O)N[C@@H](Cc1ccc(O)cc1)C(=O)NCC(=O)N[C@@H](Cc1ccccc1)C(=O)N[C@@H](CCCNC(=N)N)C(=O)O [Peptide P12] (Ac-SSMKLSFRARGYGFR-OH; C-terminus assumed),>100,>100
CCCCCCCCCCCCCCCC(=O)N[C@@H](CCCNC(=N)N)C(=O)N[C@@H](CO)C(=O)N[C@@H](CCSC)C(=O)N[C@@H](CCCNC(=N)N)C(=O)N[C@@H](CC(C)C)C(=O)N[C@@H](CO)C(=O)N[C@@H](Cc1ccccc1)C(=O)N[C@@H](CCCNC(=N)N)C(=O)O [Peptide P4] (Palmitoyl-RSMRLSFR-OH; C-terminus assumed),>100,>100
CCCCCCCCCCCCCCCC(=O)N[C@@H](CO)C(=O)N[C@@H](CO)C(=O)N[C@@H](CCSC)C(=O)N[C@@H](CCCCN)C(=O)N[C@@H](CC(C)C)C(=O)N[C@@H](CO)C(=O)N[C@@H](Cc1ccccc1)C(=O)N[C@@H](CCCNC(=N)N)C(=O)N[C@@H](C)C(=O)N[C@@H](CCCNC(=N)N)C(=O)NCC(=O)N[C@@H](Cc1ccc(O)cc1)C(=O)NCC(=O)N[C@@H](Cc1ccccc1)C(=O)N[C@@H](CCCNC(=N)N)C(=O)O [Peptide P13] (Palmitoyl-SSMKLSFRARGYGFR-OH; C-terminus assumed),>100,>100
CC(C)C[C@@H](N)C(=O)N[C@H](CO)C(=O)N[C@H](Cc1ccccc1)C(=O)N[C@H](CCCNC(=N)N)C(=O)O [Peptide P9] (H-[dL][dS][dF][dR]-OH; N-terminus and C-terminus assumed),>100,>100
CSCC[C@H](N)C(=O)N[C@@H](CCCCN)C(=O)N[C@@H](CC(C)C)C(=O)N[C@@H](CO)C(=O)N[C@@H](Cc1ccccc1)C(=O)N[C@@H](CCCNC(=N)N)C(=O)O [Peptide P18] (H-MKLSFR-OH),>100,>100
CC(C)C[C@H](N)C(=O)N[C@@H](CO)C(=O)N[C@@H](Cc1ccccc1)C(=O)N[C@@H](CCCNC(=N)N)C(=O)O [Peptide P8] (H-LSFR-OH),>100,>100
CC(C)C[C@@H](NC(=O)[C@H](N)CCCNC(=N)N)C(=O)N[C@H](CO)C(=O)N[C@H](Cc1ccccc1)C(=O)N[C@H](CCCNC(=N)N)C(=O)N[C@H](C)C(=O)N[C@H](Cc1c[nH]c2ccccc12)C(=O)O [Peptide P6] (H-[dR][dL][dS][dF][dR][dA][dW]-OH; N-terminus and C-terminus assumed),>100,>100
CSCC[C@H](NC(=O)[C@H](CO)NC(=O)[C@@H](N)CO)C(=O)N[C@@H](CCCCN)C(=O)N[C@@H](CC(C)C)C(=O)N[C@@H](CO)C(=O)N[C@@H](Cc1ccccc1)C(=O)N[C@@H](CCCNC(=N)N)C(=O)N[C@@H](C)C(=O)N[C@@H](CCCNC(=N)N)C(=O)N[C@@H](C)C(=O)N[C@@H](Cc1ccc(O)cc1)C(=O)NCC(=O)N[C@@H](Cc1ccccc1)C(=O)N[C@@H](CCCNC(=N)N)C(=O)O [hCtl] (H-SSMKLSFRARAYGFR-OH),50,50

# Next, values leading:
MIC C. albicans “S” [1] [µg/mL],MIC C. albicans “R” [2] [µg/mL],SMILES
>100,>100,CSCC[C@H](NC(=O)[C@H](CO)NC(=O)[C@H](CO)NC(C)=O)C(=O)N[C@@H](CCCCN)C(=O)N[C@@H](CC(C)C)C(=O)N[C@@H](CO)C(=O)N[C@@H](Cc1ccccc1)C(=O)N[C@@H](CCCNC(=N)N)C(=O)O [Peptide P15] (Ac-SSMKLSFR-OH)
>100,>100,CC(=O)N[C@@H](CCCCN)C(=O)N[C@@H](CC(C)C)C(=O)N[C@@H](CO)C(=O)N[C@@H](Cc1ccccc1)C(=O)N[C@@H](CCCNC(=N)N)C(=O)N[C@@H](C)C(=O)O [Peptide P17] (Ac-KLSFRA-OH)
>100,>100,CCCCCCCCCCCCCCCC(=O)N[C@@H](CO)C(=O)N[C@@H](CO)C(=O)N[C@@H](CCSC)C(=O)N[C@@H](CCCCN)C(=O)N[C@@H](CC(C)C)C(=O)N[C@@H](CO)C(=O)N[C@@H](Cc1ccccc1)C(=O)N[C@@H](CCCNC(=N)N)C(=O)O [Peptide P16] (Palmitoyl-SSMKLSFR-OH; C-terminus assumed)
>100,>100,CSCC[C@H](NC(=O)[C@H](CO)NC(=O)[C@@H](N)CO)C(=O)N[C@@H](CCCCN)C(=O)N[C@@H](CC(C)C)C(=O)N[C@@H](CO)C(=O)N[C@@H](Cc1ccccc1)C(=O)N[C@@H](CCCNC(=N)N)C(=O)O [Peptide P14] (H-SSMKLSFR-OH)
50,100,CSCC[C@H](NC(=O)[C@H](CO)NC(=O)[C@@H](N)CCCNC(=N)N)C(=O)N[C@@H](CCCNC(=N)N)C(=O)N[C@@H](CC(C)C)C(=O)N[C@@H](CO)C(=O)N[C@@H](Cc1ccccc1)C(=O)N[C@@H](CCCNC(=N)N)C(=O)O [Peptide P2] (H-RSMRLSFR-OH)
>100,>100,CSCC[C@H](NC(=O)[C@H](CO)NC(=O)[C@H](CCCNC(=N)N)NC(C)=O)C(=O)N[C@@H](CCCNC(=N)N)C(=O)N[C@@H](CC(C)C)C(=O)N[C@@H](CO)C(=O)N[C@@H](Cc1ccccc1)C(=O)N[C@@H](CCCNC(=N)N)C(=O)O [Peptide P3] (Ac-RSMRLSFR-OH)
